Literature values, collected in patent publication US11160798B2, “Neuroprotective CB2 receptor agonists” (THE CLEVELAND CLINIC FOUNDATION, priority 2012, dated 2021).

Biological target: T1, rCB2 (Rattus norvegicus, UniProt Q9QZN9)
T1 sequence (Q9QZN9 1-360): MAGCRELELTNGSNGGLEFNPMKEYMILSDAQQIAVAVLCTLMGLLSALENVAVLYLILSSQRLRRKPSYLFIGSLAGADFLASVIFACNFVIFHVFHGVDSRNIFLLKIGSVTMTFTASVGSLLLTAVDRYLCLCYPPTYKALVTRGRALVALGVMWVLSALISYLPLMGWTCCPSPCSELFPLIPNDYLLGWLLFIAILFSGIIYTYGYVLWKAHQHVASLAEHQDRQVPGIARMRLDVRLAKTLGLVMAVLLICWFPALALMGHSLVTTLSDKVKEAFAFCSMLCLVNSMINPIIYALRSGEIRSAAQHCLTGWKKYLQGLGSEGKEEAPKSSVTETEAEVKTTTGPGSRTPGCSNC
Details: cited from earlier work

In the case of `CC1(Cc2ccccc2)COc2cc(C(=O)N3CCCCC3)ccc21` (stereo not shown) [MDA7, 3-benzyl-3-methyl-2,3-dihydrobenzofuran-6-carboxylic acid-piperidine amide], the EC50 is given as 67 nM.
